Converted amounts (≈) assume the structure as drawn. Where two headings read alike, the source gives them in different places.
Assays:
[1] = system: VISA clinical isolates of MRSA (VI-MRSA) and of MSSA (VI-MSSA); assay: microbe, parasite or virus in culture; type: cell-based, Staphylococcus aureus
Procedure, shortened: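 Strains were grown overnight at 37° C in TSB, adjusted in CAMHB to 0.3 absorbance at 578 nm and diluted 500-fold before equal-volume addition to compound dilutions.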

[2] = system: methicillin-susceptible S. aureus (MSSA), MRSA and mutants thereof; assay: MIC measurement, Test Example 3 (MSSA, MRSA and sequential gyrA/grlA quinolone-resistant mutants); type: cell-based, Staphylococcus aureus; settings: Staphylococcus aureus
Procedure, shortened: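 Clinical isolates and stepwise gyrA/grlA quinolone-resistant mutants grown overnight at 37° C in TSB, adjusted to A578 0.3 in CAMHB, diluted 500-fold and mixed 1:1 with drug dilutions in CAMHB.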

VRSA clinical isolates = assay: microbe, parasite or virus in culture; type: cell-based; settings: Staphylococcus aureus
Description: Each of the bacterial strains listed in Table 1-1 was shake-cultured at 37° C. overnight in 4 mL of a medium (Tryptical Soy Broth: TSB, product of Becton Dickinson and Company). FDA209P was used as a control.
After completion of culturing, the resultant culture was suspended in a cation-adjusted Mueller Hinton Broth (CAMHB, product of Becton Dickinson and Company). Then, the obtained bacterial culture was adjusted in absorbance with the CAMHB so that the absorbance at 578 nm of the bacterial culture was adjusted to 0.3 measured by an absorption spectrometer. In addition, the resultant bacterial culture was 500-fold diluted with the CAMHB.
Each of the 500-fold diluted, pre-cultured bacterial cultures was added at 50 μL/well to the CAMHB containing the quinolones and the nybomycins at various concentrations (50 μL/well), followed by statically culturing at 37° C. overnight.
After completion of culturing, the growth of the bacteria was visually determined based on turbidity to measure MIC in each bacterial strain.
Here, the glycopeptides used were VCM and TEIC. The β-lactam used was OXA.

Enterococcus faecalis = assay: MIC measurement, Test Example 6 (enterococcus); type: cell-based; settings: Enterococcus faecalis, read-out: MIC
Procedure, shortened: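 E. faecalis strains, including vancomycin-resistant NCTC12201 and NCTC12203, pre-grown overnight in TSB at 37° C, set to A578 0.3 in CAMHB, then diluted 500-fold.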

CC1COc2c(N3CCN(C)CC3)c(F)cc3c(=O)c(C(=O)O)cn1c23 (stereo not drawn) [OFLX, ofloxacin]
MIC ([1]; Staphylococcus aureus, 99/3700-W, VI-MRSA, The United Kingdom): 16 µg/mL (≈ 44.3 µM)
MIC ([1]; Staphylococcus aureus, 99/3759-V, VI-MRSA, The United Kingdom): 32 µg/mL (≈ 88.6 µM)
MIC ([1]; Staphylococcus aureus, 28160, VI-MRSA, South African Republic): 64 µg/mL (≈ 177 µM)
MIC ([1]; Staphylococcus aureus, 98141, VI-MRSA, France): 16 µg/mL (≈ 44.3 µM)
MIC ([1]; Staphylococcus aureus, A7 (JCSC4842), VI-MRSA, Taiwan): 16 µg/mL (≈ 44.3 µM)
MIC ([1]; Staphylococcus aureus, AMC11094, VI-MRSA, Korea): 128 µg/mL (≈ 354 µM)
MIC ([1]; Staphylococcus aureus, B7 (JCSC4852), VI-MRSA, Taiwan): 16 µg/mL (≈ 44.3 µM)
MIC ([1]; Staphylococcus aureus, BR1, VI-MRSA, Brazil): 64 µg/mL (≈ 177 µM)
MIC ([1]; Staphylococcus aureus, BR2, VI-MRSA, Brazil): 64 µg/mL (≈ 177 µM)
MIC ([1]; Staphylococcus aureus, BR3, VI-MRSA, Brazil): 64 µg/mL (≈ 177 µM)
MIC ([1]; Staphylococcus aureus, BR4, VI-MRSA, Brazil): 64 µg/mL (≈ 177 µM)
MIC ([1]; Staphylococcus aureus, BR5, VI-MRSA, Brazil): 64 µg/mL (≈ 177 µM)
MIC ([1]; Staphylococcus aureus, HIP06297, VI-MRSA, America): 16 µg/mL (≈ 44.3 µM)
MIC ([1]; Staphylococcus aureus, HIP06854, VI-MRSA, America): 16 µg/mL (≈ 44.3 µM)
MIC ([1]; Staphylococcus aureus, HIP07920, VI-MRSA, America): 16 µg/mL (≈ 44.3 µM)
MIC ([1]; Staphylococcus aureus, HIP07930, VI-MRSA, America): 32 µg/mL (≈ 88.6 µM)
MIC ([1]; Staphylococcus aureus, HIP08926, VI-MRSA, America): 16 µg/mL (≈ 44.3 µM)
MIC ([1]; Staphylococcus aureus, HIP09143, VI-MRSA, America): 64 µg/mL (≈ 177 µM)
MIC ([1]; Staphylococcus aureus, HIP09313, VI-MRSA, America): 16 µg/mL (≈ 44.3 µM)
MIC ([1]; Staphylococcus aureus, HIP09433, VI-MRSA, America): 64 µg/mL (≈ 177 µM)
MIC ([1]; Staphylococcus aureus, HIP09662, VI-MRSA, America): 32 µg/mL (≈ 88.6 µM)
MIC ([1]; Staphylococcus aureus, HIP09735, VI-MRSA, America): 32 µg/mL (≈ 88.6 µM)
MIC ([1]; Staphylococcus aureus, HIP09737, VI-MSSA, America): 64 µg/mL (≈ 177 µM)
MIC ([1]; Staphylococcus aureus, HIP09740, VI-MRSA, America): 64 µg/mL (≈ 177 µM)
MIC ([1]; Staphylococcus aureus, HIP10267, VI-MRSA, America): 64 µg/mL (≈ 177 µM)
MIC ([1]; Staphylococcus aureus, HIP10540, VI-MRSA, America): 32 µg/mL (≈ 88.6 µM)
MIC ([1]; Staphylococcus aureus, HIP12864, VI-MRSA, America): 64 µg/mL (≈ 177 µM)
MIC ([1]; Staphylococcus aureus, HIP13036, VI-MRSA, America): 8 µg/mL (≈ 22.1 µM)
MIC ([1]; Staphylococcus aureus, HIP13057, VI-MRSA, America): 32 µg/mL (≈ 88.6 µM)
MIC ([1]; Staphylococcus aureus, IL (HIP7737), VI-MRSA, America): 128 µg/mL (≈ 354 µM)
MIC ([1]; Staphylococcus aureus, JCSC7193, VI-MRSA, Thailand): 16 µg/mL (≈ 44.3 µM)
MIC ([1]; Staphylococcus aureus, JCSC7195, VI-MRSA, Thailand): 64 µg/mL (≈ 177 µM)
MIC ([1]; Staphylococcus aureus, JCSC7203, VI-MRSA, Thailand): 16 µg/mL (≈ 44.3 µM)
MIC ([1]; Staphylococcus aureus, LIM2, VI-MRSA, France): 64 µg/mL (≈ 177 µM)
MIC ([1]; Staphylococcus aureus, LY-1999-01, VI-MSSA, Oman): 8 µg/mL (≈ 22.1 µM)
MIC ([1]; Staphylococcus aureus, LY-1999-03, VI-MRSA, Oman): 8 µg/mL (≈ 22.1 µM)
MIC ([1]; Staphylococcus aureus, MI (HIP5827), VI-MRSA, America): 128 µg/mL (≈ 354 µM)
MIC ([1]; Staphylococcus aureus, MRSA / MSSA / NRS 76 / VISA, NRS76, VI-MSSA, America): 64 µg/mL (≈ 177 µM)
MIC ([1]; Staphylococcus aureus, MRSA / MSSA / NRS 79 / VISA, NRS79, VI-MRSA, America): 128 µg/mL (≈ 354 µM)
MIC ([1]; Staphylococcus aureus, MRSA / MSSA / NRS 118 / VISA, NRS118, VI-MRSA, America): 64 µg/mL (≈ 177 µM)
MIC ([1]; Staphylococcus aureus, MRSA / MSSA / NRS 126 / VISA, NRS126, VI-MRSA, America): 16 µg/mL (≈ 44.3 µM)
MIC ([1]; Staphylococcus aureus, Mu3, VI-MRSA, Japan): 16 µg/mL (≈ 44.3 µM)
MIC ([1]; Staphylococcus aureus, Mu50, VI-MRSA, Japan): 16 µg/mL (≈ 44.3 µM)
MIC ([1]; Staphylococcus aureus, NJ (HIP5836), VI-MRSA, America): 64 µg/mL (≈ 177 µM)
MIC ([1]; Staphylococcus aureus, P1V44, VI-MSSA, Belgium): 4 µg/mL (≈ 11.1 µM)
MIC ([1]; Staphylococcus aureus, PC, VI-MRSA, America): 16 µg/mL (≈ 44.3 µM)
MIC ([1]; Staphylococcus aureus, SA MER-S6, VI-MSSA, France): 1 µg/mL (≈ 2.77 µM)
MIC ([1]; Staphylococcus aureus, SA MER-S12, VI-MSSA, France): 0.5 µg/mL (≈ 1.38 µM)
MIC ([1]; Staphylococcus aureus, SA MER-S20, VI-MSSA, France): 0.25 µg/mL (≈ 0.692 µM)
MIC ([2]; MR5867-1, first-step quinolone-resistant mutant, grlA E84K): 1 µg/mL (≈ 2.77 µM)
MIC ([2]; MR5867-3, third-step mutant, further grlA S80F): 64 µg/mL (≈ 177 µM)
MIC ([2]; MR5867-4, fourth-step mutant, further gyrA E88K): > 128 µg/mL
MIC ([2]; MS5935-1, first-step quinolone-resistant mutant, grlA S80F): 1 µg/mL (≈ 2.77 µM)
MIC ([2]; MS5935-3, third-step mutant, further grlA E84K): 128 µg/mL (≈ 354 µM)
MIC ([2]; MS5952-1, first-step quinolone-resistant mutant, grlA S80Y): 1 µg/mL (≈ 2.77 µM)
MIC ([2]; MS5952-3, third-step mutant, further grlA A116V): 64 µg/mL (≈ 177 µM)
MIC (VRSA clinical isolates; VRS1, VRSA, Michigan): 32 µg/mL (≈ 88.6 µM)
MIC (VRSA clinical isolates; VRS2, VRSA, Pennsylvania): 32 µg/mL (≈ 88.6 µM)
MIC (VRSA clinical isolates; VRS3, VRSA, New York): 32 µg/mL (≈ 88.6 µM)
MIC (VRSA clinical isolates; VRS4, VRSA, New York): 32 µg/mL (≈ 88.6 µM)
MIC (VRSA clinical isolates; VRS5, VRSA, Michigan): > 128 µg/mL
MIC (VRSA clinical isolates; VRS6, VRSA, Michigan): 64 µg/mL (≈ 177 µM)
MIC (VRSA clinical isolates; VRS7, VRSA, Michigan): 64 µg/mL (≈ 177 µM)
MIC (Enterococcus faecalis; E. faecalis 36-15672, quinolone-susceptible enterococci): 2 µg/mL (≈ 5.53 µM)
MIC (Enterococcus faecalis; E. faecalis 36-15673, quinolone-susceptible enterococci): 2 µg/mL (≈ 5.53 µM)
MIC (Enterococcus faecalis; E. faecalis 36-15678, quinolone-susceptible enterococci): 2 µg/mL (≈ 5.53 µM)
MIC (Enterococcus faecalis; E. faecalis 36-15686, quinolone-resistant enterococci): 128 µg/mL (≈ 354 µM)
MIC (Enterococcus faecalis; E. faecalis 36-15688, quinolone-susceptible enterococci): 2 µg/mL (≈ 5.53 µM)
MIC (Enterococcus faecalis; E. faecalis 36-15694, quinolone-resistant enterococci): 64 µg/mL (≈ 177 µM)
MIC (Enterococcus faecalis; E. faecalis 36-15696, quinolone-susceptible enterococci): 2 µg/mL (≈ 5.53 µM)
MIC (Enterococcus faecalis; E. faecalis 36-15703, quinolone-resistant enterococci): 64 µg/mL (≈ 177 µM)
MIC (Enterococcus faecalis; E. faecalis 36-15716, quinolone-resistant enterococci): 128 µg/mL (≈ 354 µM)
MIC (Enterococcus faecalis; E. faecalis 36-15718, quinolone-susceptible enterococci): 2 µg/mL (≈ 5.53 µM)
MIC (Enterococcus faecalis; E. faecalis 36-15720, quinolone-susceptible enterococci): 2 µg/mL (≈ 5.53 µM)
MIC (Enterococcus faecalis; E. faecalis 36-15722, quinolone-resistant enterococci): 64 µg/mL (≈ 177 µM)
MIC (Enterococcus faecalis; E. faecalis 36-15726, quinolone-resistant enterococci): 128 µg/mL (≈ 354 µM)
MIC (Enterococcus faecalis; E. faecalis 36-15730, quinolone-susceptible enterococci): 4 µg/mL (≈ 11.1 µM)
MIC (Enterococcus faecalis; E. faecalis 36-15736, quinolone-susceptible enterococci): 2 µg/mL (≈ 5.53 µM)
MIC (Enterococcus faecalis; E. faecalis 36-15741, quinolone-susceptible enterococci): 4 µg/mL (≈ 11.1 µM)
MIC (Enterococcus faecalis; NCTC 12201 / VRE, E. faecalis NCTC12201, vancomycin-resistant (VRE), quinolone-susceptible enterococci): 2 µg/mL (≈ 5.53 µM)
MIC (Enterococcus faecalis; NCTC 12203 / VRE, E. faecalis NCTC12203, vancomycin-resistant (VRE), quinolone-susceptible enterococci): 2 µg/mL (≈ 5.53 µM)

Reference: patent US20120258980A1, “Antibacterial Agent for Drug-Resistant Bacteria, Method for Screening for Same, and Use of Same” (priority 2009, published 2012)
